# Experimental data as given in paper PMC11191095, “QSAR Reveals Decreased Lipophilicity of Polar Residues Determines the Selectivity of Antimicrobial Peptide Activity” (ACS Omega, 2024).
# Where a SMILES comes first, the peptide text is derived from it.
# Tests used:
# Assay in all cases: microbe, parasite or virus in culture
# E. coli LEC001 = format: cell-based, Escherichia coli; details: E. coli LEC001 (R)
# Outline: (§1)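 Peptides 128→2 μg/mL, 2-fold series; inoculum ~5 × 10^5 CFU/mL from overnight culture (OD600 0.01, mixed 1:1). MHB non-cation-adjusted for bacteria, RPMI 1640 + 2% glucose for fungi. 37 °C, 20 h, OD600. MIC50/MIC90 at 50%/90% inhibition; n ≥ 3.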
# E. coli NCTC 12923 = format: cell-based, Escherichia coli; details: E. coli NCTC 12923 (S)
# Outline: as §1
# P. aeruginosa NCTC 13437 = format: cell-based, Pseudomonas aeruginosa; details: P. aeruginosa NCTC 13437 (R)
# Outline: as §1
# A. baumannii ATCC 17978 = format: cell-based, Acinetobacter baumannii; details: A. baumannii ATCC 17978 (S)
# Outline: as §1
# A. baumannii AYE = format: cell-based, Acinetobacter baumannii; details: A. baumannii AYE (R)
# Outline: as §1
# K. pneumoniae M6 = format: cell-based, Klebsiella pneumoniae; details: K. pneumoniae M6 (S)
# Outline: as §1
# K. pneumoniae NCTC 13368 = format: cell-based, Klebsiella pneumoniae; details: K. pneumoniae NCTC 13368 (R)
# Outline: as §1
# S. aureus (MRSA) 1199B = format: cell-based, Staphylococcus aureus; details: S. aureus (MRSA) 1199B (R)
# Outline: as §1
# [1] = test system: S. aureus (MRSA) NCTC 13616; format: cell-based, Staphylococcus aureus; details: S. aureus (MRSA) NCTC 13616 (R)
# Outline: as §1
# S. aureus (MRSA) USA300 = format: cell-based, Staphylococcus aureus; details: S. aureus (MRSA) USA300 (R)
# Outline: as §1
# C. auris TDG 1912 = format: cell-based, Candida auris; details: C. auris TDG 1912
# Outline: as §1
# C. albicans NCPF 3281 = format: cell-based; details: C. albicans NCPF 3281
# Outline: as §1
# C. glabrata NCPF 8018 = format: cell-based; details: C. glabrata NCPF 8018
# Outline: as §1
# C. krusei NCPF 3876 = format: cell-based; details: C. krusei NCPF 3876
# Outline: as §1
# [2] = test system: C. parapsilosis NCPF 3209; format: cell-based; details: C. parapsilosis NCPF 3209
# Outline: as §1
# C. tropicalis NCPF 8760 = format: cell-based; details: C. tropicalis NCPF 8760
# Outline: as §1
# [3] = MHB, 37 °C, 20 h, OD600, min. three biological repeats
# [4] = MHB, ~5×10^5 CFU/mL, 37 °C, 20 h, OD600, min. three biological repeats
# [5] = 50% growth inhibition, RPMI 1640 + 2% glucose, 37 °C, 20 h, OD600
# [6] = 90% growth inhibition, RPMI 1640 + 2% glucose, 37 °C, 20 h, OD600
# [7] = 50% growth inhibition, RPMI 1640 + 2% glucose, 37 °C, 20 h
# [8] = 90% growth inhibition, RPMI 1640 + 2% glucose, 37 °C, 20 h
compound,measurement,setting,value
C[C@H](NC(=O)CNC(=O)[C@H](CCCCN)NC(=O)[C@@H](N)CS)C(=O)N[C@@H](Cc1ccccc1)C(=O)N[C@@H](CCCCN)C(=O)N[C@@H](CCC(N)=O)C(=O)N[C@H](C(=O)N[C@@H](CS)C(=O)N[C@@H](CCCCN)C(=O)N[C@@H](CS)C(=O)N[C@@H](Cc1ccc(O)cc1)C(N)=O)[C@@H](C)O [Os(11-22)a] (H-CKGAFKQTCKCY-NH2; N-terminus assumed),Modal MIC,E. coli LEC001; [3],> 128 µg/mL
same,Modal MIC,E. coli LEC001; shown in µM,> 91.7 µM
same,Modal MIC,E. coli NCTC 12923; [4],> 128 µg/mL
same,Modal MIC,E. coli NCTC 12923; shown in µM,> 91.7 µM
same,Modal MIC,P. aeruginosa NCTC 13437; [3],> 128 µg/mL
same,Modal MIC,P. aeruginosa NCTC 13437; shown in µM,> 91.7 µM
same,Modal MIC,A. baumannii ATCC 17978; [3],> 128 µg/mL
same,Modal MIC,A. baumannii ATCC 17978; shown in µM,> 91.7 µM
same,Modal MIC,A. baumannii AYE; [3],> 128 µg/mL
same,Modal MIC,A. baumannii AYE; shown in µM,> 91.7 µM
same,Modal MIC,K. pneumoniae M6; [3],> 128 µg/mL
same,Modal MIC,K. pneumoniae M6; shown in µM,> 91.7 µM
same,Modal MIC,K. pneumoniae NCTC 13368; [3],> 128 µg/mL
same,Modal MIC,K. pneumoniae NCTC 13368; shown in µM,> 91.7 µM
same,Modal MIC,S. aureus (MRSA) 1199B; [3],> 128 µg/mL
same,Modal MIC,S. aureus (MRSA) 1199B; shown in µM,> 91.7 µM
same,Modal MIC,[1]; [3],> 128 µg/mL
same,Modal MIC,[1]; shown in µM,> 91.7 µM
same,Modal MIC,S. aureus (MRSA) USA300; [3],> 128 µg/mL
same,Modal MIC,S. aureus (MRSA) USA300; shown in µM,> 91.7 µM
same,Modal MIC50,C. auris TDG 1912; [5],> 128 µg/mL
same,Modal MIC90,C. auris TDG 1912; [6],> 128 µg/mL
same,Modal MIC50,C. auris TDG 1912; shown in µM,> 91.7 µM
same,Modal MIC90,C. auris TDG 1912; shown in µM,> 91.7 µM
same,Modal MIC50,C. albicans NCPF 3281; [7],> 128 µg/mL
same,Modal MIC90,C. albicans NCPF 3281; [8],> 128 µg/mL
same,Modal MIC50,C. albicans NCPF 3281; shown in µM,> 91.7 µM
same,Modal MIC90,C. albicans NCPF 3281; shown in µM,> 91.7 µM
same,Modal MIC50,C. glabrata NCPF 8018; [7],> 128 µg/mL
same,Modal MIC90,C. glabrata NCPF 8018; [8],> 128 µg/mL
same,Modal MIC50,C. glabrata NCPF 8018; shown in µM,> 91.7 µM
same,Modal MIC90,C. glabrata NCPF 8018; shown in µM,> 91.7 µM
same,Modal MIC50,C. krusei NCPF 3876; [7],> 128 µg/mL
same,Modal MIC90,C. krusei NCPF 3876; [8],> 128 µg/mL
same,Modal MIC50,C. krusei NCPF 3876; shown in µM,> 91.7 µM
same,Modal MIC90,C. krusei NCPF 3876; shown in µM,> 91.7 µM
same,Modal MIC50,[2]; [7],> 128 µg/mL
same,Modal MIC90,[2]; [8],> 128 µg/mL
same,Modal MIC50,[2]; shown in µM,> 91.7 µM
same,Modal MIC90,[2]; shown in µM,> 91.7 µM
same,Modal MIC50,C. tropicalis NCPF 8760; [7],> 128 µg/mL
same,Modal MIC90,C. tropicalis NCPF 8760; [8],> 128 µg/mL
same,Modal MIC50,C. tropicalis NCPF 8760; shown in µM,> 91.7 µM
same,Modal MIC90,C. tropicalis NCPF 8760; shown in µM,> 91.7 µM
CC[C@H](C)[C@H](NC(=O)CNC(=O)[C@@H](N)CCCCN)C(=O)N[C@@H](CCCNC(=N)N)C(=O)NCC(=O)N[C@@H](Cc1ccc(O)cc1)C(=O)N[C@@H](CCCCN)C(=O)NCC(=O)NCC(=O)N[C@@H](Cc1ccc(O)cc1)C(=O)N[C@@H](CS)C(=O)N[C@@H](CCCCN)C(=O)NCC(=O)N[C@@H](C)C(=O)N[C@@H](Cc1ccccc1)C(=O)N[C@@H](CCCCN)C(=O)N[C@@H](CCC(N)=O)C(=O)N[C@H](C(=O)N[C@@H](CS)C(=O)N[C@@H](CCCCN)C(=O)N[C@@H](CS)C(=O)N[C@@H](Cc1ccc(O)cc1)C(=O)O)[C@@H](C)O [Os] (H-KGIRGYKGGYCKGAFKQTCKCY-OH; N-terminus and C-terminus assumed),Modal MIC,E. coli LEC001; [3],> 128 µg/mL
same,Modal MIC,E. coli LEC001; shown in µM,> 51.7 µM
same,Modal MIC,E. coli NCTC 12923; [4],> 128 µg/mL
same,Modal MIC,E. coli NCTC 12923; shown in µM,> 51.7 µM
same,Modal MIC,P. aeruginosa NCTC 13437; [3],> 128 µg/mL
same,Modal MIC,P. aeruginosa NCTC 13437; shown in µM,> 51.7 µM
same,Modal MIC,A. baumannii ATCC 17978; [3],> 128 µg/mL
same,Modal MIC,A. baumannii ATCC 17978; shown in µM,> 51.7 µM
same,Modal MIC,A. baumannii AYE; [3],> 128 µg/mL
same,Modal MIC,A. baumannii AYE; shown in µM,> 51.7 µM
same,Modal MIC,K. pneumoniae M6; [3],> 128 µg/mL
same,Modal MIC,K. pneumoniae M6; shown in µM,> 51.7 µM
same,Modal MIC,K. pneumoniae NCTC 13368; [3],> 128 µg/mL
same,Modal MIC,K. pneumoniae NCTC 13368; shown in µM,> 51.7 µM
same,Modal MIC,S. aureus (MRSA) 1199B; [3],> 128 µg/mL
same,Modal MIC,S. aureus (MRSA) 1199B; shown in µM,> 51.7 µM
same,Modal MIC,[1]; [3],> 128 µg/mL
same,Modal MIC,[1]; shown in µM,> 51.7 µM
same,Modal MIC,S. aureus (MRSA) USA300; [3],> 128 µg/mL
same,Modal MIC,S. aureus (MRSA) USA300; shown in µM,> 51.7 µM
same,Modal MIC50,C. auris TDG 1912; [5],> 128 µg/mL
same,Modal MIC90,C. auris TDG 1912; [6],> 128 µg/mL
same,Modal MIC50,C. auris TDG 1912; shown in µM,> 51.7 µM
same,Modal MIC90,C. auris TDG 1912; shown in µM,> 51.7 µM
same,Modal MIC50,C. albicans NCPF 3281; [7],> 128 µg/mL
same,Modal MIC90,C. albicans NCPF 3281; [8],> 128 µg/mL
same,Modal MIC50,C. albicans NCPF 3281; shown in µM,> 51.7 µM
same,Modal MIC90,C. albicans NCPF 3281; shown in µM,> 51.7 µM
same,Modal MIC50,C. glabrata NCPF 8018; [7],> 128 µg/mL
same,Modal MIC90,C. glabrata NCPF 8018; [8],> 128 µg/mL
same,Modal MIC50,C. glabrata NCPF 8018; shown in µM,> 51.7 µM
same,Modal MIC90,C. glabrata NCPF 8018; shown in µM,> 51.7 µM
same,Modal MIC50,C. krusei NCPF 3876; [7],> 128 µg/mL
same,Modal MIC90,C. krusei NCPF 3876; [8],> 128 µg/mL
same,Modal MIC50,C. krusei NCPF 3876; shown in µM,> 51.7 µM
same,Modal MIC90,C. krusei NCPF 3876; shown in µM,> 51.7 µM
same,Modal MIC50,[2]; [7],> 128 µg/mL
same,Modal MIC90,[2]; [8],> 128 µg/mL
same,Modal MIC50,[2]; shown in µM,> 51.7 µM
same,Modal MIC90,[2]; shown in µM,> 51.7 µM
same,Modal MIC50,C. tropicalis NCPF 8760; [7],> 128 µg/mL
same,Modal MIC90,C. tropicalis NCPF 8760; [8],> 128 µg/mL
same,Modal MIC50,C. tropicalis NCPF 8760; shown in µM,> 51.7 µM
same,Modal MIC90,C. tropicalis NCPF 8760; shown in µM,> 51.7 µM
